Key:
[1] = pure compound in water; cited from earlier work
[2] = Chlorinated DNAPL dissolution in control sample without cosolvent-surfactant (equilibrium solubility in water in presence of the DNAPL); conditions: 25 °C, thermodynamic from solid
Experimental: In order to test the treatment of chlorinated compounds, a chlorinated solvent DNAPL was obtained from a site consisting of chlorinated solvents and chlorinated semi-volatile compounds. […]
The data collected under the experimentation conditions presented in Table 2 were obtained at 25° C. with 60 rpm shaker table mixing for 48 hours. After the shaker was shut off, the samples sat quietly for 5 minutes before the supernatant was analyzed. DNAPLmax represents the maximum concentration of DNAPL that may dissolve, given the mass of DNAPL and the volume of water.
Samples from experiment number 1, 3, 5, 7, and 8 (control) were analyzed. Additionally, measurements of interfacial tension (IFT) were conducted on the samples after the 48-hour period.

For ClC(Cl)=C(Cl)C(Cl)=C(Cl)Cl [Hexachlorobutadiene (HCBD), Hexachlorobutadiene], the “Pure Compound Aqueous Solubility” value [1] is listed as 0.005 µg/mL.
For ClC(Cl)(Cl)C(Cl)(Cl)Cl [Hexachloroethane (HCE), Hexachloroethane], the “Pure Compound Aqueous Solubility” value [1] is listed as 50 µg/mL.
For Clc1c(Cl)c(Cl)c2c(Cl)c(Cl)c(Cl)c(Cl)c2c1Cl [Octachloronaphthalene (OCN), Octachloronaphthalene], the “Pure Compound Aqueous Solubility” value [1] is listed as “insoluble”.
For ClC(Cl)=C(Cl)Cl [Tetrachloroethene (PCE), Tetrachloroethene], the “Pure Compound Aqueous Solubility” value [1] is listed as 800 µg/mL and the solubility at 48 h [2] is listed as 140 µg/mL.
